According to patent US10155927B2, “Method for differentiation of pluripotent stem cells into cardiomyocytes” (Hoffmann-La Roche Inc., priority 2014, dated 2018):

Legend:
[1] = tested on: human embryonic stem cells (hESC) and induced pluripotent stem cells (iPSC); assay: Differentiation of pluripotent stem cells (hESC or iPSC) into cardiomyocytes; type: cell-based; design: key to Amount of cardiomyocytes obtained: (−) No cardiomyocytes obtained; (+)—(+++): Amount of cardiomyocytes obtained; (+)—(+++): Amount of cardiomyocytes obtained; (+)—(+++): Amount of cardiomyocytes obtained; conditions: for Ability to induce cardiomyocyte differentiation: other Wnt inhibitors tested instead of Wnt-C59; for Amount of cardiomyocytes obtained: Experiments I-III
Experimental: (§1) To initialize differentiation, the cells are incubated in insulin-free medium comprising compound 21 (3-(3-Amino-phenyl)-4-(1-methyl-1H-indol-3-yl)-pyrrole-2,5-dione, also referred to as “compound 21” or “CP21” herein; see e.g., Gong et al. (2010) Bioorganic& Medicinal Chemistry Letters 20:1693-1696) to activate the wnt-pathway. The optimal concentration of compound 21 to induce cardiomyocyte differentiation is dependent on the cell density of the pluripotent cells that are attached to the cell vessel. […] This is surprising as prior art protocols require higher concentrations of other modulators of the Wnt pathway for efficient differentiation.
(§2) The optimal concentration was identified at 2 μM. […] In one embodiment, step c) of the differentiation method comprises incubating the cells in a medium comprising 1-10 μM Wnt-C59. In one preferred embodiment step c) of the differentiation method comprises incubating the cells in a medium comprising 2 μM Wnt-C59.
Anthelmintic niclosamide and Pyrvinium were tested for their ability to induce cardiomyocyte differentiation.
Human embryonic stem cells (hESC) or induced pluripotent stem cells (iPSC) were cultured in 56 cm^2 dishes coated with Matrigel (BD Bioscience, Cat. 354277) at 37° C. and 5% CO2 in 10 ml mTeSR1 medium (Stemcell Technologies, Cat. 05850).
To propagate pluripotent stem cells by conserving their pluripotent state, hESC or iPSC were treated with the following: the cells were washed once with 10 ml PBS−/−, and afterwards incubated with 3 ml Accutase (Innovative Cell Technologies, Cat. AT-104) for 2-3 minutes at 37° C. and 5% CO2, to detach the cells.
The enzymatic reaction of Accutase was stopped with 7 ml mTeSR1 and followed by centrifugation of the cells for 3 minutes at 500×g.
The cells were resuspended in 10 ml mTeSR1, and counted. For further cultivation, 2×10^6 cells were plate on 56 cm^2 dishes with fresh coated Matrigel. Further the hESC or iPSC were cultivated in 10 ml mTeSR1 and 10 μM Rock inhibitor, Y-27632 (Millipore, Cat. SCM075) at 37° C. and 5% CO2. Subsequently, 10 ml mTeSR1 medium was changed daily and the pluripotent stem cells were cultivated to a density of 80% before passaging.
For successful differentiation into cardiomyocytes, pluripotent stem cells were plated at high density using 5.5×10^5/cm^2 of hESC or iPSC. Passaging and cultivation were performed as described above for pluripotent stem cells.
After 24 hours (day 1) the hESC or iPSC were washed once with 180 μl/cm^2 PBS−/− and the cultivation medium was changed to 180 μl/cm^2 differentiation medium.
After 24 hours (day 2) incubation with CP21, the cells were washed with PBS−/− as described above and cultivated for 48 hours in 220 μl/cm^2 differentiation medium.
After 48 hours (day 4), the cells were washed with PBS−/− as described above and cultivated for 48 hours in 220 μl/cm^2 differentiation medium comprising 2 μM Wnt-C59 (Cellagen Technology, Cat. C7641-2s, International Patent Application Publication No. WO 20101 01849), a potent Wnt signaling inhibitor, by blocking Wnt secretion.
After 48 hours (day 6), the cells were washed with PBS−/− as described above and cultivated for 48 hours in 220 μl/cm^2 differentiation medium.
After 48 hours (day 8), the cells were washed with PBS−/− as described above and cultivated for 48 hours in 220 μl/cm^2 RPMI medium comprising ascorbic acid, penicillin-streptomycin, but now including B27 plus insulin, minus vitamin A (=expansion medium)
Subsequent medium changes were performed every 48 hours using 220 μl/cm^2 expansion medium.
To test the efficiency of the differentiation process, the cardiomyocytes were characterized at differentiation day 14 by cell immunohistochemistry and Fluorescence Activated Cell Sorting (FACS) using antigens specific to cardiomyocytes.
The protocol as described above was repeated with different CP21 concentrations. The results are shown in Table 1 below: (−) No cardiomyocytes obtained, (+)—(+++): Amount of cardiomyocytes obtained.

[2] = tested on: pluripotent cells (hESC or iPSC); assay: Cell viability / cell death during the differentiation protocol; type: cell-based
Experimental: as §1, §2

[3] = tested on: pluripotent stem cell derived cardiomyocytes; assay: xCELLigence cardiomyocyte beating analysis; type: cell-based, human
Experimental: Isoproterenol increases the heart rate and myocardial contractility by stimulating cardiac beta-1 receptors. To detect this proarrhythmic effect in the stem cell derived cardiomyocytes, 7×10^4/cm^2 cells were plated on special E-Plate Cardio 96 (Roche, Cat. No. 05232368001) coated with 130 μl/cm^2 0.1% Gelatine for 1 hour at 37° C. After cells attached to the plate and recovered for 2 days as described above, medium was changed to iCell Cardiomyocytes Maintenance Medium (Cellular Dynamics, Cat. No.CMM-100-120-005). Cells were measured using the xCELLigence RTCA Cardio System (Roche Applied Science). 7 days after plating the cells were treated with 3 μM Isoproterenol and measured directly. Each 96-well plate was measured at a resolution of 12.9 ms. The first 3 minutes were measured without interruption and over the next 24 hours the cells were measured every 15 minutes for 1 minute duration. Activation of β-receptors on the heart induces positive chronotropic effects in cardiomyocytes. To confirm that the pluripotent stem cell derived cardiomyocytes respond to β-receptor activation, the cardiomyocytes were incubated with the β-receptor agonist isoproterenol and subsequently analysed using the xCELLigence system.

Cc1cc(-c2ccc(CC(=O)Nc3ccc(-c4cccnc4)cc3)cc2)ccn1 [Wnt-C59, 2-(4-(2-methylpyridin-4-yl)phenyl)-N-(4-(pyridin-3-yl)phenyl)acetamide]
Optimal concentration for cardiomyocyte differentiation ([1]; Wnt repressor in step c), tested 1-10 μM): 2 µM
Effect on cardiomyocytes obtained ([1]; Wnt-C59 1-10 μM, step c)): significant increase in cardiomyocytes
Concentrations showing increased cell death ([2]; step c) of differentiation): more than 5 μM

CC(C)NCC(O)c1ccc(O)c(O)c1 (centres unmarked) [isoproterenol]
Beating rate ([3]; 3 μM isoproterenol, untreated control 45 beats per minute): 60 beats per minute
Effect on beating frequency ([3]; FIG. 5, xCELLigent analysis): increases beating frequency

Cc1cc(/C=C/c2ccc3cc(N(C)C)ccc3[n+]2C)c(C)n1-c1ccccc1 [Pyrvinium]
Ability to induce cardiomyocyte differentiation [1]: did not result in a successful generation of cardiomyocytes

Cn1cc(C2=C(c3cccc(N)c3)C(=O)NC2=O)c2ccccc21 [CP21, 3-(3-Amino-phenyl)-4-(1-methyl-1H-indol-3-yl)-pyrrole-2,5-dione]
Amount of cardiomyocytes obtained ([1]; Cp21 conc. 0.3 μM): −
Amount of cardiomyocytes obtained ([1]; Cp21 conc. 1 μM): +
Amount of cardiomyocytes obtained ([1]; Cp21 conc. 2 μM): ++ and +++
Amount of cardiomyocytes obtained ([1]; Cp21 conc. 3 μM): ++ and +
Amount of cardiomyocytes obtained ([1]; Cp21 conc. 5 μM): + and −
Amount of cardiomyocytes obtained ([1]; Cp21 conc. 10 μM): −
Concentration resulting in the most efficient differentiation of pluripotent stem cells into cardiomyocytes ([1]; cell density 5.5×10^5/cm^2, tested 0-10 μM at 1.8-11×10^5/cm2 hESC or iPSC): 2 µM
Incubation time optimal for cardiogenesis ([1]; various incubation times tested, longer or shorter less efficient): 24 h
Cell death after incubation ([2]; After 24 h CP21 incubation): strong cell death
Concentrations showing decreased cell viability ([2]; step b) of differentiation): above 5 μM

O=C(Nc1ccc([N+](=O)[O-])cc1Cl)c1cc(Cl)ccc1O [Anthelmintic niclosamide, niclosamide]
Ability to induce cardiomyocyte differentiation [1]: did not result in a successful generation of cardiomyocytes
